# Source: patent US8957108B2, “Use of 5,6-dimethylxanthenone-4-acetic acid as an antiviral agent” (University of Maryland, Baltimore, priority 2006, dated 2015)
# Columns and labels:
# IRF-3 = test: Native-PAGE and Western blotting for IRF-3 dimers; type: cell-based, mouse; conditions: peritoneal macrophages, DMXAA- vs. LPS-stimulated
# Protocol: Rabbit anti-mouse IκBα phospho-specific Ab (pAb) was purchased from Santa Cruz Biotechnology, Inc. (Santa Cruz, Calif.). Rabbit anti-mouse MAPK pAb and rabbit anti-human phospho-IRF-3 pAb antibodies were purchased from Cell Signaling (Danvers, Mass.). Rabbit anti-mouse IRF-3 pAb was purchased from Zymed (South San Francisco, Calif.). Native-PAGE for the detection of IRF-3 dimers was carried out as described in Iwamura, T. et al. (2001) “Induction Of IRF-3/-7 Kinase And NF-kappaB in Response To Double-Stranded RNA And Virus Infection: Common And Unique Pathways,” Genes and Cells 6:375-388. Briefly, thioglycollate-elicited peritoneal macrophages were lysed following stimulation with either LPS or DMXAA as indicated. […] Membranes were probed with a 1:250 dilution of rabbit anti-mouse IRF-3 for 1 h at room temperature. Goat anti-rabbit IgG-HRP (Cell Signaling Technologies, Danvers, Mass.) at a 1:2000 dilution was used as the secondary Ab. Blots were developed with ECL Plus (Amersham Biosciences, Piscataway, N.J.).
# Influenza/A/Wuhan [1] = test: Assay of direct inhibition of viral infection (influenza, MDCK cells, CPE); type: cell-based; conditions: CPE of influenza virus on MDCK cells; read-out: IC50 direct antiviral activity
# Protocol: Influenza at 10^3 TCID50 was added in 50 μl volumes to all wells and incubated at room temperature for 1 h. The mixture was inoculated onto MDCK cells on 96-well plates. Tamiflu (1.75 mg/ml) and Relenza (0.5 mg/ml) were used as a positive control for the assay.
# Influenza/A/Wuhan [2] = test: Assay of indirect inhibition of viral infection (influenza, MDCK cells, CPE); conditions: CPE of influenza virus on MDCK cells
# peritoneal macrophages [3] = test: Cytokine analysis of macrophage culture supernatants; type: cell-based, mouse; conditions: supernatants at 24 h
# TBK1−/− MEFs = test: Quantitative real-time PCR in mouse embryonic fibroblasts; conditions: 2 h
# [4] = tested on: IκBα, NF-κB, p38, ERK, and JNK MAPK; test: IκBα, NF-κB and MAPK activation in macrophages; type: cell-based, mouse
# peritoneal macrophages [5] = test: Quantitative real-time PCR of cytokine mRNA in murine peritoneal macrophages
# macrophages = test: Expression of LPS-inducible early genes and IFN production in macrophages; type: cell-based, mouse
# From the text: Because all of the cellular activities listed above can be performed by another ubiquitous yet structurally diverse compound, the lipopolysaccharide (LPS) of Gram-negative bacteria, the ability of DMXAA to modulate the expression of a subset of well-characterized LPS-inducible early genes in macrophages was studied in an effort to further elucidate the mechanism of DMXAA action. DMXAA's ability to induce IFN production by macrophages and to modulate the expression of the genes that encode transcription factors IRF-1, IRF-2, and ICSBP members of the interferon regulatory factor (IRF) gene family was also studied. […] These genes are: TNF-α, IL-1β, IP-10, Type 2 Tumor Necrosis Factor Receptor (TNFR-2), D3, and D8.
# murine colon tumors = conditions: mouse; cited from earlier work
# MEFs = test: RANTES protein in MEF supernatants; type: cell-based, mouse; conditions: 24 h
# Protocol: IFN-β protein in cell culture supernatants was measured using a custom ELISA originally described in Weinstein, S. L. et al. (2000) “Phosphatidylinositol 3-Kinase And mTOR Mediate Lipopolysaccharide-Stimulated Nitric Oxide Production In Macrophages Via Interferon-Beta,” J. Leukocyte Biol. 67:405-414, with few modifications. […] Plates were blocked with 10% FCS in 1×PBS for 2 h at room temperature. Samples and a murine IFN-β standard (NIH, Bethesda, Md.) were added to wells and incubated overnight at 4° C. […] Wells were washed 3× followed by incubation with a 1:2000 dilution of goat anti-rabbit HRP (Cell Signaling Technologies, Beverly, Mass.) in 10% FCS-PBS for 1 h at room temperature. Plates were washed 3× and developed with TMB substrate (KPL, Gaithersburg, Md.). The reaction was stopped by addition of 1N H2SO4, and plates were read at 450 nm. RANTES and TNF-α were quantified using Luminex bead-based colorimetric assays. […] For stimulation of cells, poly(I:C) was mixed with Fugene 6 transfection reagent (Roche) at a ratio of 1:1 (volume:weight) in OptiMEM medium and incubated for 15 min prior to stimulation. Culture supernatants of cells (2×10^4) seeded on 96-well plates were collected after 24 h stimulation and analyzed for RANTES levels with ELISA. ELISA was performed according to the manufacturer's instructions (R&D Systems).
smiles,measurement,setting,value
"Cc1ccc2c(=O)c3cccc(CC(=O)O)c3oc2c1C [DMXAA, 5,6-dimethylxanthenone-4-acetic acid]",activated IRF-3 dimers,IRF-3,much more abundant and longer-lived
same,IC50,Influenza/A/Wuhan [1],5 µg/mL
same,IC50 indirect antiviral activity,Influenza/A/Wuhan [2],2.0 µg/mL
same,RANTES production in IRF-3−/− macrophages,peritoneal macrophages [3],fail to produce RANTES
same,secretion of TNF-α in IRF-3-deficient macrophages,peritoneal macrophages [3],reduced to background levels
same,RANTES mRNA in TBK1-deficient MEFs,TBK1−/− MEFs,fail to express
same,TNF-α mRNA in TBK1-deficient MEFs,TBK1−/− MEFs,fail to express
same,"activation of p38, ERK, and JNK MAPK",[4]; C57BL/6 macrophages,no discernible effect
same,NF-κB translocation / binding activity,[4]; RAW 264.7 macrophage-like cell line,little effect
same,level of IκBα protein,[4]; primary macrophages,little effect
same,induced IFN-β mRNA and protein in MyD88−/− macrophages,"peritoneal macrophages [5]; 2 h mRNA, 24 h protein",not significantly altered
same,induced TNF-α mRNA and protein in MyD88−/− macrophages,"peritoneal macrophages [5]; 2 h mRNA, 24 h protein",not significantly altered
same,response to restimulation with either LPS or DMXAA after pretreatment,"peritoneal macrophages [5]; 24 h pretreatment, restimulated 1 h",induces a state of refractoriness
same,TNF-α mRNA in the absence of TLR4,"peritoneal macrophages [5]; TLR4−/− peritoneal macrophages, 2 h",induces TNF-α to wild-type levels
same,induction of IFN-β protein and IP-10 mRNA compared with LPS,peritoneal macrophages [5]; murine macrophages,much more potent inducer
same,IFN-β steady-state mRNA relative to LPS,"peritoneal macrophages [5]; peritoneal exudate macrophages, 2 h, real-time PCR",~10 fold
same,TNF-α gene expression,macrophages,only low induction
same,"expression of the genes encoding IP-10, D8, and D3",macrophages,up-regulated to levels similar to those observed upon LPS induction
same,induction of TNFR-2 and IL-1β genes,macrophages,insignificant induction
same,induction of Type 1 Interferons (IFNs),macrophages; mouse macrophages,extremely potent inducer
same,potency in vivo against murine colon tumors relative to FAA,murine colon tumors,12 fold
same,RANTES secretion in RIG-I−/− MEFs,MEFs,intact
same,induced RANTES in TRIF−/− MEFs,MEFs,unaffected by the absence of TRIF
same,RANTES response in MAVS-deficient MEFs,MEFs; MAVS+/+ and MAVS−/− MEFs,induces RANTES via a MAVS-independent pathway
